These results are taken from patent US8158623B2, “Heptacyclic compounds and the pharmaceutical uses thereof for preventing and treating diabetes and metabolic syndrome” (Shanghai Institute of Materia Medica Chinese Academy of …, priority 2007, dated 2012).

For one assay, the system named is 3T3-L1 adipocytes. Nature of the assay: Glucose uptake in 3T3-L1 adipocytes (3H-labelled 2-deoxyglucose). It counts as cell-based. The following applies: for Glucose uptake, Mean, Compound + Insulin Group (Control Group = 1.000): with insulin, relative to control without insulin; for fold induction at 10 µM: Mus musculus, 3T3-L1, 2 h incubation, read-out: Glucose uptake, Mean, Compound Group (Control Group = 1.000). Here is the method:
The effect of the compounds on baseline or insulin-stimulated glucose uptake was evaluated, using the model of glucose uptake in 3T3-L1 adipocytes.
Adipose tissue is the target of glucose metabolism in vivo. The sensitivity for insulin and availability of glucose in adipose tissues are tightly associated with the insulin resistance. The transportation of glucose into adipocytes is a rate-limiting step for the glucose metabolism, and also an important indicator for evaluating the sensitivity for insulin in adipose tissue. 3T3-L1 is a kind of pre-adipocyte, and can become adipocyte after differentiated completely. Therefore, 3T3-L1 is a desirable model for the glucose transport.
Pre-adipocyte, 3T3-L1 was induced to differentiate under certain conditions. After 3T3-L1 differentiated into adipocytes, the compounds of interest with different concentrations and DMSO (used as control) can be added and incubated with the adipocytes for different periods, then the glucose uptake could be determined. For evaluating the ability for a compound to stimulate glucose uptake, the baseline and insulin-induced glucose uptake were determined, and the increase in baseline and insulin-induced glucose uptake upon treatment of the compounds as compared with control group (with 0.1% DMSO) is calculated, based on the ^3H-labelled 2-deoxyglucose inside the cells.
3T3-L1 cells purchased from Karolinska Institute (Sweden) were cultured in DMEM medium containing 10% fetal calf serum at 37° C., under 5% CO2. The cells were passaged every 3-4 days. The cells were inoculated into 12-well plate. Upon confluence, culture medium containing 0.5 mM 3-isobutyl-1-methylxanthine, 0.25 μM dexamethasone and 5 μg/ml insulin was added and cultured for 3 days. Then, the culture medium was replaced by a medium containing 5 μg/ml insulin and further cultured for 3 days. The insulin was removed, and the cells had differentiated completely into mature adipocytes after 2 days which could be used to determine the glucose uptake.
23 compounds chosen by the inventors were added into the culture medium of adipocytes in a dose of 10 μM. After incubation for 2 h, the effect of the compounds on glucose uptake in 3T3-L1 cells was observed. Culture medium without compounds was used as negative control. The control group only supplemented with insulin and the experiment group supplemented with compounds plus insulin were also employed to observe the effect of the compounds on glucose uptake.

In assay [1] the test system is AMP-Activated Protein Kinase (AMPK). Briefly: Phosphorylation of AMPK in HepG2 cell (Western blot). The assay is classed as cell-based, Human. Conditions: HepG2, 50 uM, 5 minutes, P<0.01 or P<0.05. The procedure:
(§1) Human hepatoma carcinoma cell strain (HepG2, purchased from the cell bank of Shanghai Institute of Cell Biology of Chinese Academy) was used. The Human hepatoma carcinoma cells were passaged by 0.1% pancreatin/0.02% EDTA digestion, and cultured in a incubator at 37° C. using MEM culture medium containing 10% FBS, under 5% CO2/95%.
(§2) HepG2 cells were cultured in 6-well plates for 48 hours until 70%-80% confluence. Serum starvation was started by changing medium with MEM containing 0.5% BSA. After starvation for 6 hours, cells were treated with the compounds (final concentration of 50 uM, containing 0.25% DMSO) for 5 minutes. The culture medium was discarded, and cells were harvested and washed for twice with pre-cooled PBS. The washing liquid was discarded, and any residual PBS was blotted dry. DMSO without heptacyclic compounds was used as control.
(§3) Extraction of total cellular protein: 150 μl/well homogenizing buffer (137 mM NaCl, 2.7 mM KCl, 1 mM MgCl2, 0.5 mM Na3VO4, 1% Triton X-100, 10% Glycerol, 20 mM Tris-HCl pH 7.8, 1 ug/ml Leupeptin, 0.2 mM PMSF, 10 mM NaF, 1 ug/ml Aprotinin, 1 mM EDTA, 1 mM DTT, 5 mM Sodium pyrophosphate, 1 mM Benzamidine) was added. Cells were collected into a 1.5 ml centrifuge tube using cell scraper. Cells were homogenized using sonicator (5 W of power) for 2 times (3 seconds per time), and shaken on a shaker for 1 hour. Supernatant (i.e., total cellular protein) was collected by centrifuging at 14000 rpm for 15 min at 4° C., and stored at −70° C. until use. After the protein concentration was determined by Bradford method, the supernatant was formulated as the loading sample with final concentration of 0.6 mg/ml. The whole preparation process was performed at 4° C.
(§4) Protein Electrophoresis: After being treated at 95° C. for 5 min, the loading sample was loaded (15 μg protein/lane). The protein was separated on 7.5% SDS-acrylamide gel for 1-2 hours under the voltage of 80-120 V.
(§5) Electrotransferring the protein and blocking the membrane: After electrophoresis was finished, the protein was transferred to PVDF membrane using semi-dry transferring slot based on 0.8 mA/cm^2 membrane area under the electric current of 80 mA for 2 hours. After that, the membrane was shaken for 2 hours with 7.5% skim milk/TTBS to block the membrane.
(§6) Antigen-antibody reaction: After the blocking process was finished, the membrane was incubated with primary antibody (antibody against phosphorylated ACC (P-ACC) and antibody against phosphorylated AMPK (P-AMPK), all purchased from Cell signaling (USA), with the working concentration of 1:1000) overnight at 4° C. The membrane was removed, and the primary antibody was recovered. The membrane was washed 5 times, each for 10 min in TTBS. The membrane was shaken for 2 hours with the secondary antibody (horseradish peroxidase-conjugated goat-anti-rabbit IgG antibody, purchased from Bio-rad (USA), with the working concentration of 1:5000) at room temperature. The secondary antibody was discarded. The membrane was washed 5 times, each for 10 min in TTBS in order to remove the unbound secondary antibody.
(§7) ECL exposure and development: Luminescent agents, ECL 1, 2, were mixed homogeneously, and incubated with the membrane for 3-5 min. The membrane was removed, wrapped in preservative film, and transferred into dark room for exposure. After exposure with X-film, the film was developed, washed, recorded and conserved.
(§8) Semi-quantitative analysis was performed through optical density scan using computer image analysis system. Grey level of the protein expression was calculated. The target grey level was divided by the grey level of internal standard, and a histogram was plotted, taking the normal group as 1 unit.

Assay [2] deals with Acetyl CoA Carboxylase (ACC). Nature of the assay: Phosphorylation of ACC in HepG2 cell (Western blot). The assay is classed as cell-based, Human. The following applies: HepG2, 50 uM, 5 minutes, P<0.01 or P<0.05. Here is the method:
as §1, §2, §3, §4, §5, §6, §7, §8

[3] abbreviates: baseline (without insulin), relative to control.

Take `O=C1Oc2ccccc2Oc2ccccc21` [AA0, Dibenzo[b,e][1,4]dioxepin-11-one]: in the assay with 3T3-L1 adipocytes (10 μM, 2 h incubation), the “Glucose uptake, Mean, Compound + Insulin Group (Control Group = 1.000)” value is given as 2.130. Moreover, the fold induction at 10 µM in the assay on 3T3-L1 adipocytes (setting [3]) came out at 1.12.
For `CCCOC(=O)c1cc(OC)c(C)c2c1Oc1c(CNc3ccc(S(N)(=O)=O)cc3)c(O)cc(C)c1C(=O)O2` [AA5, 3-Hydroxy-8-methoxy-1,9-dimethyl-11-oxo-4-[(4-sulfamoyl-phenylamino)-methyl]-11H-dibenzo[b,e][1,4]dioxepine-6-carboxylic acid propyl ester], the “Level of phosphorylation for AMPK protein versus DMSO control” value in assay [1] is recorded as “increased significantly”.
On to `CCCOC(=O)c1cc(OC)c(C)c2c1Oc1c(CNCCN3CCOCC3)c(O)cc(C)c1C(=O)O2` [AA6, 3-Hydroxy-8-methoxy-1,9-dimethyl-4-[(2-morpholin-4-yl-ethylamino)-methyl]-11-oxo-11H-dibenzo[b,e][1,4]dioxepine-6-carboxylic acid propyl ester], for which the “Level of phosphorylation for ACC protein versus DMSO control” value in assay [2] is on record as “improved significantly”. The “Level of phosphorylation for AMPK protein versus DMSO control” value in assay [1] is “increased significantly”.
`COc1cc(C(=O)O)c2c(c1C)OC(=O)c1c(C)cc(O)c(CNc3ccc(F)cc3)c1O2` [AA7, 4-[(4-Fluoro-phenylamino)-methyl]-3-hydroxy-8-methoxy-1,9-dimethyl-11-oxo-11H-dibenzo[b,e][1,4]dioxepine-6-carboxylic acid]: in assay [2], the “Level of phosphorylation for ACC protein versus DMSO control” value is “improved significantly”. In addition, the “Glucose uptake, Mean, Compound + Insulin Group (Control Group = 1.000)” value with 3T3-L1 adipocytes (10 μM, 2 h incubation) came to 1.786. Moreover, the fold induction at 10 µM in the assay on 3T3-L1 adipocytes (setting [3]) was determined as 1.13.
With `CNC(=O)c1cc(OC)c(C)c2c1Oc1c(C=O)c(O)cc(C)c1C(=O)O2` [AB2, 4-Formyl-3-hydroxy-8-methoxy-1,9-dimethyl-11-oxo-11H-dibenzo[b,e][1,4]dioxepine-6-carboxylic acid methylamide], the “Glucose uptake, Mean, Compound + Insulin Group (Control Group = 1.000)” value in the assay with 3T3-L1 adipocytes (10 μM, 2 h incubation) is listed as 1.639. In addition, the fold induction at 10 µM in the assay on 3T3-L1 adipocytes (setting [3]) was found to be 1.18.
The matching figures for `CCNC(=O)c1cc(OC)c(C)c2c1Oc1c(C=O)c(O)cc(C)c1C(=O)O2` [AB4, 4-Formyl-3-hydroxy-8-methoxy-1,9-dimethyl-11-oxo-11H-dibenzo[b,e][1,4]dioxepine-6-carboxylic acid ethylamide]: 1.837 and 1.11.
On to `COc1cc(C(=O)Nc2ccc(S(N)(=O)=O)cc2)c2c(c1C)OC(=O)c1c(C)cc(O)c(C=Nc3ccc(S(N)(=O)=O)cc3)c1O2` [AB9, 3-Hydroxy-8-methoxy-1,9-dimethyl-11-oxo-4-[(4-sulfamoylphenyl)-iminomethyl]-11H-dibenzo[b,e][1,4]dioxepine-6-[carboxy-(4-sulfamoyl)phenylamide]], for which, in the assay on 3T3-L1 adipocytes (10 μM, 2 h incubation, baseline (without insulin), relative to control), the “Glucose uptake, Mean, Compound Group (Control Group = 1.000)” value came to 1.150. Moreover, in the assay on 3T3-L1 adipocytes (10 μM, 2 h incubation), the “Glucose uptake, Mean, Compound + Insulin Group (Control Group = 1.000)” value is given as 1.555.
As to `COc1ccc2c(c1)NC(=O)c1cc(Cl)c(O)cc1N2` [BT5, 2-Chloro-3-hydroxy-8-methoxy-5,10-dihydro-dibenzo[b,e][1,4]diazepin-11-one], the “Level of phosphorylation for ACC protein versus DMSO control” value in assay [2] was “improved significantly”. The “Glucose uptake, Mean, Compound + Insulin Group (Control Group = 1.000)” value in the assay with 3T3-L1 adipocytes (10 μM, 2 h incubation) worked out at 1.728. The fold induction at 10 µM in the assay on 3T3-L1 adipocytes (setting [3]) worked out at 1.23.
Turning to `Cc1cc2c(c(C(=O)O)c1)Nc1ncccc1C(=O)N2` [BT7, 8-Methyl-5-oxo-6,11-dihydro-5H-benzo[b]pyrido[2,3-e][1,4]diazepine-10-carboxylic acid], the “Level of phosphorylation for ACC protein versus DMSO control” value in assay [2] was “improved significantly”. Further, the “Level of phosphorylation for AMPK protein versus DMSO control” value in assay [1] is given as “increased significantly”.
In the case of `COc1cnc2c(c1)NC(=O)c1ccc(O)c(C=O)c1N2` [BU0, 9-Hydroxy-3-methoxy-6-oxo-6,11-dihydro-5H-benzo[e]pyrido[3,2-b][1,4]diazepine-10-carbaldehyde], the “Level of phosphorylation for AMPK protein versus DMSO control” value in assay [1] is reported as “increased significantly”. For the same molecule, the “Glucose uptake, Mean, Compound + Insulin Group (Control Group = 1.000)” value in the assay with 3T3-L1 adipocytes (10 μM, 2 h incubation) amounted to 2.147. The fold induction at 10 µM in the assay with 3T3-L1 adipocytes (setting [3]) is 1.43.
`COC(=O)c1cc(OC)c(C)c2c1Oc1c(C=O)c(O)cc(C)c1C(=O)O2` [Compound A0, 4-Formyl-3-hydroxy-8-methoxy-1,9-dimethyl-11-oxo-11H-dibenzo[b,e][1,4]dioxepine-6-carboxylic acid methyl ester]: the “Level of phosphorylation for ACC protein versus DMSO control” value in assay [2] is recorded as “improved significantly”. In the assay with 3T3-L1 adipocytes (10 μM, 2 h incubation), the “Glucose uptake, Mean, Compound + Insulin Group (Control Group = 1.000)” value came to 2.710. The fold induction at 10 µM in the assay on 3T3-L1 adipocytes (setting [3]) is 1.33.
For the molecule `COc1cc(C(=O)O)c2c(c1C)OC(=O)c1c(C)cc(O)c(CN3CCNCC3)c1O2` [Compound D1, 3-Hydroxy-8-methoxy-1,9-dimethyl-11-oxo-4-(piperazin-1-ylmethyl)-11H-dibenzo[b,e][1,4]dioxepine-6-carboxylic acid], the “Level of phosphorylation for AMPK protein versus DMSO control” value in assay [1] is “increased significantly”. Further, the “Glucose uptake, Mean, Compound + Insulin Group (Control Group = 1.000)” value in the assay on 3T3-L1 adipocytes (10 μM, 2 h incubation) is 3.673. The fold induction at 10 µM in the assay with 3T3-L1 adipocytes (setting [3]) was 1.28.
Turning to `COc1cc(C(=O)O)c2c(c1C)OC(=O)c1c(C)cc(O)c(CNC(C)(C)C)c1O2` [Compound D3, 4-(tert-Butylamino-methyl)-3-hydroxy-8-methoxy-1,9-dimethyl-11-oxo-11H-dibenzo[b,e][1,4]dioxepine-6-carboxylic acid], in the assay with 3T3-L1 adipocytes (10 μM, 2 h incubation), the “Glucose uptake, Mean, Compound + Insulin Group (Control Group = 1.000)” value came out at 3.001. Moreover, the fold induction at 10 µM with 3T3-L1 adipocytes (setting [3]) was determined as 1.12.
Regarding `COc1cc(C(=O)O)c2c(c1C)OC(=O)c1c(C)cc(O)c(CN3CCN(Cc4ccccc4)CC3)c1O2` [Compound D4, 4-(4-Benzyl-piperazin-1-ylmethyl)-3-hydroxy-8-methoxy-1,9-dimethyl-11-oxo-11H-dibenzo[b,e][1,4]dioxepine-6-carboxylic acid], in the assay on 3T3-L1 adipocytes (10 μM, 2 h incubation), the “Glucose uptake, Mean, Compound + Insulin Group (Control Group = 1.000)” value is listed as 3.717. The fold induction at 10 µM with 3T3-L1 adipocytes (setting [3]) was 1.19.
With `COc1cc(C(=O)O)c2c(c1C)OC(=O)c1c(C)cc(O)c(CNc3ccc(NC(C)=O)cc3)c1O2` [Compound D8, 4-[(4-Acetylamino-phenylamino)-methyl]-3-hydroxy-8-methoxy-1,9-dimethyl-11-oxo-11H-dibenzo[b,e][1,4]dioxepine-6-carboxylic acid], the “Level of phosphorylation for ACC protein versus DMSO control” value in assay [2] is “improved significantly”. Besides, the “Glucose uptake, Mean, Compound + Insulin Group (Control Group = 1.000)” value in the assay with 3T3-L1 adipocytes (10 μM, 2 h incubation) came to 3.877. Also, the fold induction at 10 µM with 3T3-L1 adipocytes (setting [3]) was 1.21.
